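1) Cells in 96-well plates. 2) Compound, 48 h, 5 concentrations. 3) Linear interpolation between surrounding doses. 4) Unreached endpoint = highest concentration. Abbreviation: GI50, concentration required for 50% inhibition of growth. TGI denotes the concentration required for complete inhibition of growth.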
Experiments:
Assay in all cases: inhibition of tumour cell growth, NCI panel, 48 h
786-0 renal = test system: 786-0 renal
A498 renal = test system: A498 renal
A549 NSCLC = test system: A549 NSCLC
ACHN renal = test system: ACHN renal
BT-549 breast = test system: BT-549 breast
CAKI-1 renal = test system: CAKI-1 renal
CCRF-CEM leukemia = test system: CCRF-CEM leukemia
COLO 205 colon = test system: COLO 205 colon
DU-145 prostate = test system: DU-145 prostate
EKVX NSCLC = test system: EKVX NSCLC
HCC-2998 colon = test system: HCC-2998 colon
HCT-116 colon = test system: HCT-116 colon
HCT-15 colon = test system: HCT-15 colon
HL-60(TB) leukemia = test system: HL-60(TB) leukemia
HOP-62 NSCLC = test system: HOP-62 NSCLC
HOP-92 NSCLC = test system: HOP-92 NSCLC
HS 578T breast = test system: HS 578T breast
HT29 colon = test system: HT29 colon
IGROV1 ovarian = test system: IGROV1 ovarian
K-562 leukemia = test system: K-562 leukemia
KM12 colon = test system: KM12 colon
LOX IMVI melanoma = test system: LOX IMVI melanoma
M14 melanoma = test system: M14 melanoma
MALME-3M melanoma = test system: MALME-3M melanoma
MCF7 breast = test system: MCF7 breast
MDA-MB-231 breast = test system: MDA-MB-231 breast
MDA-MB-435 = test system: MDA-MB-435
MDA-MB-468 breast = test system: MDA-MB-468 breast
MOLT-4 leukemia = test system: MOLT-4 leukemia
NCI-H226 lung = test system: NCI-H226 lung
NCI-H23 lung = test system: NCI-H23 lung
NCI-H460 lung = test system: NCI-H460 lung
NCI-H522 lung = test system: NCI-H522 lung
OVCAR-3 ovarian = test system: OVCAR-3 ovarian
OVCAR-4 ovarian = test system: OVCAR-4 ovarian
OVCAR-5 ovarian = test system: OVCAR-5 ovarian
OVCAR-8 ovarian = test system: OVCAR-8 ovarian
PC-3 prostate = test system: PC-3 prostate
RPMI-8226 leukemia = test system: RPMI-8226 leukemia
RXF 393 renal = test system: RXF 393 renal
SF-268 CNS = test system: SF-268 CNS
SF-295 CNS = test system: SF-295 CNS
SF-539 CNS = test system: SF-539 CNS
SK-MEL-2 melanoma = test system: SK-MEL-2 melanoma
SK-MEL-28 melanoma = test system: SK-MEL-28 melanoma
SK-MEL-5 melanoma = test system: SK-MEL-5 melanoma
SK-OV-3 ovarian = test system: SK-OV-3 ovarian
SN12C renal = test system: SN12C renal
SNB-19 CNS = test system: SNB-19 CNS
SNB-75 CNS = test system: SNB-75 CNS
SR leukemia = test system: SR leukemia
SW-620 colon = test system: SW-620 colon
T-47D breast = test system: T-47D breast
TK-10 renal = test system: TK-10 renal
U251 CNS = test system: U251 CNS
UACC-257 melanoma = test system: UACC-257 melanoma
UACC-62 melanoma = test system: UACC-62 melanoma
UO-31 renal = test system: UO-31 renal

SMILES: O=C(/C=C/c1ccc(Cl)cc1)c1nc2ccccc2n1Cc1ccc(F)cc1
- GI50 (786-0 renal): 13.2 µM
- TGI (786-0 renal): 28.9 µM
- GI50 (A498 renal): > 100 µM
- TGI (A498 renal): > 100 µM
- GI50 (A549 NSCLC): 22.9 µM
- TGI (A549 NSCLC): > 100 µM
- GI50 (ACHN renal): 17.7 µM
- TGI (ACHN renal): 51.4 µM
- GI50 (BT-549 breast): 11.8 µM
- TGI (BT-549 breast): 30.4 µM
- GI50 (CAKI-1 renal): 7.89 µM
- TGI (CAKI-1 renal): 43 µM
- GI50 (CCRF-CEM leukemia): 4.12 µM
- TGI (CCRF-CEM leukemia): > 100 µM
- GI50 (COLO 205 colon): 14.8 µM
- TGI (COLO 205 colon): 32.9 µM
- GI50 (DU-145 prostate): 16.5 µM
- TGI (DU-145 prostate): 63.3 µM
- GI50 (EKVX NSCLC): 17.5 µM
- TGI (EKVX NSCLC): 44.9 µM
- GI50 (HCC-2998 colon): 14.7 µM
- TGI (HCC-2998 colon): 28.5 µM
- GI50 (HCT-116 colon): 11.8 µM
- TGI (HCT-116 colon): 25.2 µM
- GI50 (HCT-15 colon): 7.86 µM
- TGI (HCT-15 colon): 23.4 µM
- GI50 (HL-60(TB) leukemia): 9.53 µM
- TGI (HL-60(TB) leukemia): 47.1 µM
- GI50 (HOP-62 NSCLC): 14.8 µM
- TGI (HOP-62 NSCLC): 36.8 µM
- GI50 (HOP-92 NSCLC): 7.12 µM
- TGI (HOP-92 NSCLC): 79.7 µM
- GI50 (HS 578T breast): 19.8 µM
- TGI (HS 578T breast): > 100 µM
- GI50 (HT29 colon): 13.1 µM
- TGI (HT29 colon): 31.5 µM
- GI50 (IGROV1 ovarian): 14.5 µM
- TGI (IGROV1 ovarian): 41.9 µM
- GI50 (K-562 leukemia): 6.18 µM
- TGI (K-562 leukemia): > 100 µM
- GI50 (KM12 colon): 11.9 µM
- TGI (KM12 colon): 45.7 µM
- GI50 (LOX IMVI melanoma): 4.97 µM
- TGI (LOX IMVI melanoma): 18.1 µM
- GI50 (M14 melanoma): 14.1 µM
- TGI (M14 melanoma): 32 µM
- GI50 (MALME-3M melanoma): 15.2 µM
- TGI (MALME-3M melanoma): 34.3 µM
- GI50 (MCF7 breast): 3.76 µM
- TGI (MCF7 breast): 76.4 µM
- GI50 (MDA-MB-231 breast): 16.4 µM
- TGI (MDA-MB-231 breast): 42 µM
- GI50 (MDA-MB-435): 11.4 µM
- TGI (MDA-MB-435): 29.4 µM
- GI50 (MDA-MB-468 breast): 10.4 µM
- TGI (MDA-MB-468 breast): 28 µM
- GI50 (MOLT-4 leukemia): 4.15 µM
- TGI (MOLT-4 leukemia): > 100 µM
- GI50 (NCI-H226 lung): 20.8 µM
- TGI (NCI-H226 lung): 62.1 µM
- GI50 (NCI-H23 lung): 14.4 µM
- TGI (NCI-H23 lung): 36.8 µM
- GI50 (NCI-H460 lung): 11 µM
- TGI (NCI-H460 lung): 28.4 µM
- GI50 (NCI-H522 lung): 13.7 µM
- TGI (NCI-H522 lung): 31.4 µM
- GI50 (OVCAR-3 ovarian): 5.05 µM
- TGI (OVCAR-3 ovarian): 22.2 µM
- GI50 (OVCAR-4 ovarian): 23.4 µM
- TGI (OVCAR-4 ovarian): > 100 µM
- GI50 (OVCAR-5 ovarian): 17.5 µM
- TGI (OVCAR-5 ovarian): 37.2 µM
- GI50 (OVCAR-8 ovarian): 13.9 µM
- TGI (OVCAR-8 ovarian): 42.5 µM
- GI50 (PC-3 prostate): 14.3 µM
- TGI (PC-3 prostate): 58.5 µM
- GI50 (RPMI-8226 leukemia): 4.59 µM
- TGI (RPMI-8226 leukemia): 53 µM
- GI50 (RXF 393 renal): 7.71 µM
- TGI (RXF 393 renal): 21.7 µM
- GI50 (SF-268 CNS): 19.2 µM
- TGI (SF-268 CNS): > 100 µM
- GI50 (SF-295 CNS): 14.3 µM
- TGI (SF-295 CNS): 33.9 µM
- GI50 (SF-539 CNS): 14.1 µM
- TGI (SF-539 CNS): 27.9 µM
- GI50 (SK-MEL-2 melanoma): 14.5 µM
- TGI (SK-MEL-2 melanoma): 40.1 µM
- GI50 (SK-MEL-28 melanoma): 14.9 µM
- TGI (SK-MEL-28 melanoma): 32.5 µM
- GI50 (SK-MEL-5 melanoma): 15.2 µM
- TGI (SK-MEL-5 melanoma): 36.2 µM
- GI50 (SK-OV-3 ovarian): 41.2 µM
- TGI (SK-OV-3 ovarian): > 100 µM
- GI50 (SN12C renal): 18.7 µM
- TGI (SN12C renal): 70.9 µM
- GI50 (SNB-19 CNS): 14.7 µM
- TGI (SNB-19 CNS): 33 µM
- GI50 (SNB-75 CNS): 2.9 µM
- TGI (SNB-75 CNS): > 100 µM
- GI50 (SR leukemia): 5.12 µM
- TGI (SR leukemia): > 100 µM
- GI50 (SW-620 colon): 8.58 µM
- TGI (SW-620 colon): 28.6 µM
- GI50 (T-47D breast): 5.89 µM
- TGI (T-47D breast): 33.9 µM
- GI50 (TK-10 renal): 20 µM
- TGI (TK-10 renal): 75.8 µM
- GI50 (U251 CNS): 10.3 µM
- TGI (U251 CNS): 25.2 µM
- GI50 (UACC-257 melanoma): 19.5 µM
- TGI (UACC-257 melanoma): 86.8 µM
- GI50 (UACC-62 melanoma): 13.2 µM
- TGI (UACC-62 melanoma): 30.5 µM
- GI50 (UO-31 renal): 9.9 µM
- TGI (UO-31 renal): 22 µM
